Where a name gives a salt, the structure may show the parent alone. Some results are limits rather than exact numbers.

One assay concerns Aβ42. The experiment in a line: Screening for γ-secretase-modulating activity in SKNBE2 cells carrying APP 695 wild type: Aβ42 in cell supernatant (Alphalisa). The assay is classed as cell-based. Particulars: overnight incubation. As for the experimental part:
(§1) Pharmacology A) Screening of the Compounds of the Invention for γ-Secretase-Modulating Activity
(§2) Screening was carried out using SKNBE2 cells carrying the APP 695—wild type, grown in Dulbecco's Modified Eagle's Medium/Nutrient mixture F-12 (DMEM/NUT-mix F-12) (HAM) provided by Invitrogen (cat no. 10371-029) containing 5% Serum/Fe supplemented with 1% non-essential amino acids, 1-glutamine 2 mM, Hepes 15 mM, penicillin 50 U/ml (units/ml) en streptomycin 50 μg/ml. Cells were grown to near confluency.
(§3) The screening was performed using a modification of the assay as described in Citron et al (1997) Nature Medicine 3: 67. Briefly, cells were plated in a 384-well plate at 10^4 cells/well in Ultraculture (Lonza, BE12-725F) supplemented with 1% glutamine (Invitrogen, 25030-024), 1% non-essential amino acid (NEAA), penicillin 50 U/ml en streptomycin 50 μg/ml in the presence of test compound at different test concentrations. The cell/compound mixture was incubated overnight at 37° C., 5% CO2. The next day the media were assayed by two sandwich immuno-assays, for Aβ42 and Aβtotal.
(§4) Aβtotal and Aβ42 concentrations were quantified in the cell supernatant using the Aphalisa technology (Perkin Elmer). Alphalisa is a sandwich assay using biotinylated antibody attached to streptavidin coated donorbeads and antibody conjugated to acceptor beads. In the presence of antigen, the beads come into close proximity. The excitation of the donor beads provokes the release of singlet oxygen molecules that trigger a cascade of energy transfer in the acceptor beads, resulting in light emission. To quantify the amount of Aβ42 in the cell supernatant, monoclonal antibody specific to the C-terminus of Aβ42 (JRF/cAβ42/26) was coupled to the receptor beads and biotinylated antibody specific to the N-terminus of Aβ (JRF/AβN/25) was used to react with the donor beads. T quantify the amount of Aβtotal in the cell supernatant, monoclonal antibody specific to the N-terminus of Aβ (JRF/AβN/25) was coupled to the receptor beads and biotinylated antibody specific to the mid region of Aβ (biotinylated 4G8) was used to react with the donor beads.
(§5) To obtain the values reported in Table 3, the data are calculated as percentage of the maximum amount of amyloid Beta 42 measured in the absence of the test compound. The sigmoidal dose response curves were analyzed using non-linear regression analysis with percentage of the control plotted against the log concentration of the compound. A 4-parameter equation was used to determine the IC50.
(Bead proximity is the source of the signal in Alpha formats.)

A further assay has as its system Aβtotal. The assay can be described thus: Screening for γ-secretase-modulating activity in SKNBE2 cells carrying APP 695 wild type: Aβtotal in cell supernatant (Alphalisa). The assay is classed as cell-based. Particulars: overnight incubation. How it is done: as §1, §2, §3, §4, §5
[1] abbreviates: Homo sapiens, SKNBE2, SKNBE2 cells carrying APP 695 wild type.
The mark [2] stands for this setting: SKNBE2 cells carrying APP 695 wild type.

Broadly, the IC50 is the midpoint of a concentration-inhibition curve. Regarding `Cc1cc(-c2ccc(Nc3nc4n(n3)CCC[C@H]4c3ccc(F)cc3C)cc2)ccn1` [Compound 94, (8S)-8-(4-fluoro-2-methylphenyl)-5,6,7,8-tetrahydro-N-[4-(2-methyl-4-pyridinyl)phenyl]-[1,2,4]triazolo[1,5-a]pyridin-2-amine], the IC50 with Aβ42 (setting [1]) was 56 nM; with Aβtotal (Homo sapiens), above 10000 nM.

Regarding `COc1cc(NC(=O)c2nc3c(-c4ccccc4Cl)cccn3n2)ccc1-n1cnc(C)c1` [Compound 72, 8-(2-chlorophenyl)-N-[3-methoxy-4-(4-methyl-1H-imidazol-1-yl)phenyl]-[1,2,4]triazolo[1,5-a]pyridine-2-carboxamide], the IC50 in the assay on Aβ42 (setting [1]) amounted to 23 nM; in the assay with Aβtotal (Homo sapiens), 4570 nM.

As to `COc1cc(Nc2nc3c(N4CCCC(C(F)(F)F)C4)cccn3n2)ccc1-c1ccnc(C)c1` (centres unmarked) [Compound 181, N-[3-methoxy-4-(2-methyl-4-pyridinyl)phenyl]-8-[3-(trifluoromethyl)-1-piperidinyl]-[1,2,4]triazolo[1,5-a]pyridin-2-amine.1.5HCl.1.7H2O], the IC50 with Aβ42 (setting [1]) is 16 nM; with Aβtotal (Homo sapiens) it was 3980 nM.

As for `COc1nc(Nc2nc3c(-c4ccc(F)cc4C)nccn3n2)ccc1-n1cnc(C)c1` [Compound 186, 8-(4-fluoro-2-methylphenyl)-N-[6-methoxy-5-(4-methyl-1H-imidazol-1-yl)-2-pyridinyl]-[1,2,4]triazolo[1,5-a]pyrazin-2-amine.HCl], the IC50 in the assay on Aβ42 (setting [2]) was 1100 nM; with Aβtotal, above 10000 nM.

As for `COc1cc(Nc2nc3c(-c4ccc(F)cc4C(F)(F)F)cccn3n2)ccc1-n1cnc(C)n1` [Compound 4, 8-[4-fluoro-2-(trifluoromethyl)phenyl]-N-[3-methoxy-4-(3-methyl-1H-1,2,4-triazol-1-yl)phenyl]-[1,2,4]triazolo[1,5-a]pyridin-2-amine], the IC50 with Aβ42 (setting [1]) was 22 nM; with Aβtotal (Homo sapiens), above 10000 nM.

In the case of `COc1cc(F)cc(C2CCCn3nc(Nc4ccc(-c5ccnc(C)c5)c(OC)c4)nc32)c1` (centres unmarked) [Compound 115, 8-(3-fluoro-5-methoxyphenyl)-5,6,7,8-tetrahydro-N-[3-methoxy-4-(2-methyl-4-pyridinyl)phenyl]-[1,2,4]triazolo[1,5-a]pyridin-2-amine], the IC50 is 41 nM in the assay on Aβ42 (setting [1]) and above 10000 nM in the assay with Aβtotal (Homo sapiens).

In the case of `COc1ccc(C2CCCn3nc(Nc4ccc(-c5ccnc(C)c5)c(OC)c4)nc32)cc1F` (centres unmarked) [Compound 104, 8-(3-fluoro-4-methoxyphenyl)-5,6,7,8-tetrahydro-N-[3-methoxy-4-(2-methyl-4-pyridinyl)phenyl]-[1,2,4]triazolo[1,5-a]pyridin-2-amine.1.3HCl.2.3H2O], the IC50 was 56 nM in the assay with Aβ42 (setting [2]) and above 10000 nM with Aβtotal.

`COc1cc(Nc2nc3c(-c4ccc(F)cc4)c(C)ccn3n2)ccc1-c1ccnc(C)c1` [Compound 74, 8-(4-fluorophenyl)-N-[3-methoxy-4-(2-methyl-4-pyridinyl)phenyl]-7-methyl-[1,2,4]triazolo[1,5-a]pyridin-2-amine]: the IC50 with Aβ42 (setting [1]) turned out to be 15 nM; in the assay on Aβtotal (Homo sapiens), 7410 nM.

With `COc1nc(Nc2nc3n(n2)CCCC3c2ccccc2C(F)(F)F)ccc1-n1cnc(C)c1` (centres unmarked) [Compound 17, 5,6,7,8-tetrahydro-N-[6-methoxy-5-(4-methyl-1H-imidazol-1-yl)-2-pyridinyl]-8-[2-(trifluoromethyl)phenyl]-[1,2,4]triazolo[1,5-a]pyridin-2-amine], the IC50 was 295 nM in the assay with Aβ42 (setting [1]) and above 10000 nM with Aβtotal (Homo sapiens).

As to `COc1cc(Nc2nc3c(-c4ccc(F)cc4C)nccn3n2)ccc1-n1cnc(C)c1` [Compound 10, 8-(4-fluoro-2-methylphenyl)-N-[3-methoxy-4-(4-methyl-1H-imidazol-1-yl)phenyl]-[1,2,4]triazolo[1,5-a]pyrazin-2-amine], the IC50 with Aβ42 (setting [1]) is 9 nM; with Aβtotal (Homo sapiens), above 10000 nM.

Consider `COc1cc(Nc2nc3c(-c4cc(C(F)(F)F)ccc4F)cccn3n2)ccc1-n1cnc(C)c1` [Compound 63, 8-[2-fluoro-5-(trifluoromethyl)phenyl]-N-[3-methoxy-4-(4-methyl-1H-imidazol-1-yl)phenyl]-[1,2,4]triazolo[1,5-a]pyridin-2-amine], for which the figures for the IC50 in the assay with Aβ42 (setting [1]) and with Aβtotal (Homo sapiens) were 19 nM and 8130 nM, respectively.

Regarding `COc1cc(Nc2nc3n(n2)CCC(c2ccccc2C(F)(F)F)C3)ccc1-n1cnc(C)c1` (centres unmarked) [Compound 51, 5,6,7,8-tetrahydro-N-[3-methoxy-4-(4-methyl-1H-imidazol-1-yl)phenyl]-7-[2-(trifluoromethyl)phenyl]-[1,2,4]triazolo[1,5-a]pyridin-2-amine], the results for the IC50 in the assay with Aβ42 (setting [1]) and in the assay on Aβtotal (Homo sapiens) were 62 nM and above 10000 nM, respectively.

`COc1cc(Nc2nc3cc(-c4ccccc4C(F)(F)F)ccn3n2)ccc1-n1cnc(C)c1` [Compound 21, N-[3-methoxy-4-(4-methyl-1H-imidazol-1-yl)phenyl]-7-[2-(trifluoromethyl)phenyl]-[1,2,4]triazolo[1,5-a]pyridin-2-amine]: the IC50 was 115 nM in the assay with Aβ42 (setting [1]) and above 10000 nM in the assay with Aβtotal (Homo sapiens).

As for `Cc1cc(-c2ccc(Nc3nc4n(n3)CCCC4c3ccccc3C(F)(F)F)cc2)c(C)cn1` (centres unmarked) [Compound 45, N-[4-(2,5-dimethyl-4-pyridinyl)phenyl]-5,6,7,8-tetrahydro-8-[2-(trifluoromethyl)phenyl]-[1,2,4]triazolo[1,5-a]pyridin-2-amine], the half-maximal inhibitory concentration (IC50) is 145 nM in the assay with Aβ42 (setting [1]) and above 10000 nM in the assay on Aβtotal (Homo sapiens).

For the compound `COc1ccc(F)c(C2CCCn3nc(Nc4ccc(-c5ccnc(C)c5)c(OC)c4)nc32)c1` (centres unmarked) [Compound 172, 8-(2-fluoro-5-methoxyphenyl)-5,6,7,8-tetrahydro-N-[3-methoxy-4-(2-methyl-4-pyridinyl)phenyl]-[1,2,4]triazolo[1,5-a]pyridin-2-amine.1.7HCl], the IC50 in the assay with Aβ42 (setting [2]) was 38 nM; in the assay on Aβtotal, above 10000 nM.

Consider `COc1cc(Nc2nc3c(-c4ccc(F)cc4C)cccn3n2)ccc1-n1cnc(C)c1` [Compound 19, 8-(4-fluoro-2-methylphenyl)-N-[3-methoxy-4-(4-methyl-1H-imidazol-1-yl)phenyl]-[1,2,4]triazolo[1,5-a]pyridin-2-amine], for which the values for the IC50 with Aβ42 (setting [1]) and in the assay on Aβtotal (Homo sapiens) were 4 nM and 3720 nM, respectively.

In the case of `Cc1cc(-c2ccc(Nc3nc4n(n3)CCOC4c3ccccc3Cl)cc2F)ccn1` (centres unmarked) [Compound 88, 8-(2-chlorophenyl)-N-[3-fluoro-4-(2-methyl-4-pyridinyl)phenyl]-5,6-dihydro-8H-[1,2,4]triazolo[5,1-c][1,4]oxazin-2-amine], the values for the IC50 with Aβ42 (setting [1]) and with Aβtotal (Homo sapiens) were 36 nM and 9330 nM, respectively.

Turning to `COc1cccc(C2CCCn3nc(Nc4ccc(-n5cnc(C)c5)c(OC)c4)nc32)c1` (centres unmarked) [Compound 35, 5,6,7,8-tetrahydro-N-[3-methoxy-4-(4-methyl-1H-imidazol-1-yl)phenyl]-8-(3-methoxyphenyl)-[1,2,4]triazolo[1,5-a]pyridin-2-amine.2HCl.H2O], the figures for the IC50 in the assay with Aβ42 (setting [2]) and in the assay on Aβtotal were 31 nM and above 10000 nM, respectively.

For the compound `Cc1cc(-c2ccc(Nc3nc4n(n3)CCOC4c3ccccc3C(F)(F)F)cc2)ccn1` (centres unmarked) [Compound 85, 5,6-dihydro-N-[4-(2-methyl-4-pyridinyl)phenyl]-8-[2-(trifluoromethyl)phenyl]-8H-[1,2,4]triazolo[5,1-c][1,4]oxazin-2-amine], the IC50 in the assay with Aβ42 (setting [1]) was 44 nM; in the assay on Aβtotal (Homo sapiens) it was above 10000 nM.

As for `COc1cc(N(C)c2nc3n(n2)CCCC3c2ccccc2C(F)(F)F)ccc1-n1cnc(C)c1` (centres unmarked) [Compound 33, 5,6,7,8-tetrahydro-N-[3-methoxy-4-(4-methyl-1H-imidazol-1-yl)phenyl]-N-methyl-8-[2-(trifluoromethyl)phenyl]-[1,2,4]triazolo[1,5-a]pyridin-2-amine HCl], the IC50 in the assay on Aβ42 (setting [1]) was 4470 nM; in the assay on Aβtotal (Homo sapiens), above 10000 nM.

With `COc1nc(Nc2nc3n(n2)CCCC3c2ccccc2Cl)ccc1-n1cnc(C)c1` (centres unmarked) [Compound 18, 8-(2-chlorophenyl)-5,6,7,8-tetrahydro-N-[6-methoxy-5-(4-methyl-1H-imidazol-1-yl)-2-pyridinyl]-[1,2,4]triazolo[1,5-a]pyridin-2-amine], the IC50 is 112 nM with Aβ42 (setting [1]) and above 10000 nM with Aβtotal (Homo sapiens).

Consider `COc1nc(Nc2nc3c(-c4ccc(F)cc4C)nccn3n2)ccc1-c1ccnc(C)c1` [Compound 187, 8-(4-fluoro-2-methylphenyl)-N-(2-methoxy-2′-methyl[3,4′-bipyridin]-6-yl)-[1,2,4]triazolo[1,5-a]pyrazin-2-amine.HCl], for which the IC50 in the assay with Aβ42 (setting [2]) is 1620 nM; in the assay with Aβtotal it was above 10000 nM.

The values are drawn from patent publication US9145399B2, “Substituted bicyclic triazole derivatives as gamma secretase modulators” (Janssen Pharmaceuticals, Inc., priority 2010, dated 2015).
